Results as given in the NIST ThermoML archive (doi:10.1021/je900284z).
Where “and” joins values, the source holds several entries; their conditions need not be identical. Equal values may be shown once.

Conditions: Liquid; for viscosity: Falling or rolling sphere viscometry; for mass density: 101.33 kPa

CCCCC(CC)COC(=O)c1ccccc1 (configuration not stated) [2-ethylhexyl benzoate]
Conditions	viscosity
263.15 K, 100 kPa	29.42 mPa·s and 29.39 mPa·s
268.15 K, 100 kPa	21.45 mPa·s and 21.43 mPa·s
273.15 K, 100 kPa	16.21 mPa·s and 16.22 mPa·s
273.15 K, 700 kPa	16.39 mPa·s
273.15 K, 14200 kPa	20.88 mPa·s
273.15 K, 16100 kPa	22.11 mPa·s
273.15 K, 29700 kPa	28.8 mPa·s
273.15 K, 45500 kPa	38.79 mPa·s
273.15 K, 47100 kPa	39.5 mPa·s
273.15 K, 60900 kPa	51.94 mPa·s
273.15 K, 81800 kPa	78.37 mPa·s
273.15 K, 102000 kPa	114.7 mPa·s
273.15 K, 110600 kPa	132.5 mPa·s
273.15 K, 149800 kPa	286.9 mPa·s
283.15 K, 100 kPa	10.07 mPa·s
293.15 K, 100 kPa	6.753 mPa·s and 6.756 mPa·s
298.15 K, 100 kPa	5.574 mPa·s and 5.529 mPa·s
298.15 K, 300 kPa	5.708 mPa·s
298.15 K, 900 kPa	5.771 mPa·s
298.15 K, 26000 kPa	8.4 mPa·s
298.15 K, 50900 kPa	12.07 mPa·s
298.15 K, 75600 kPa	17.19 mPa·s
298.15 K, 100800 kPa	24.58 mPa·s
298.15 K, 125500 kPa	34.9 mPa·s
298.15 K, 150900 kPa	49.92 mPa·s
298.15 K, 175100 kPa	70.34 mPa·s
298.15 K, 200700 kPa	101 mPa·s
298.15 K, 225200 kPa	143.1 mPa·s
298.15 K, 250700 kPa	206 mPa·s
303.15 K, 100 kPa	4.847 mPa·s
313.15 K, 100 kPa	3.641 mPa·s and 3.644 mPa·s and 3.646 mPa·s
323.15 K, 100 kPa	2.859 mPa·s and 2.857 mPa·s
323.15 K, 25900 kPa	3.952 mPa·s
323.15 K, 50900 kPa	5.32 mPa·s
323.15 K, 75800 kPa	7.088 mPa·s
323.15 K, 100600 kPa	9.368 mPa·s
323.15 K, 125700 kPa	12.33 mPa·s
323.15 K, 150400 kPa	16.17 mPa·s
323.15 K, 174800 kPa	20.75 mPa·s
323.15 K, 175600 kPa	21.33 mPa·s
323.15 K, 200800 kPa	28.03 mPa·s
323.15 K, 225600 kPa	36.82 mPa·s
323.15 K, 250400 kPa	48.19 mPa·s
323.15 K, 275200 kPa	62.86 mPa·s
323.15 K, 300000 kPa	82.18 mPa·s
323.15 K, 300100 kPa	82.04 mPa·s
333.15 K, 100 kPa	2.3 mPa·s
343.15 K, 100 kPa	1.834 mPa·s [middle of 5 runs]
348.15 K, 100 kPa	1.728 mPa·s and 1.73 mPa·s
348.15 K, 10800 kPa	1.956 mPa·s
348.15 K, 25400 kPa	2.3 mPa·s
348.15 K, 50800 kPa	2.994 mPa·s
348.15 K, 75900 kPa	3.826 mPa·s
348.15 K, 100800 kPa	4.842 mPa·s
348.15 K, 125700 kPa	6.009 mPa·s
348.15 K, 150700 kPa	7.634 mPa·s
348.15 K, 175700 kPa	9.511 mPa·s
348.15 K, 200700 kPa	11.85 mPa·s
348.15 K, 225700 kPa	14.77 mPa·s
348.15 K, 250500 kPa	18.23 mPa·s
348.15 K, 275300 kPa	22.56 mPa·s
348.15 K, 276300 kPa	22.83 mPa·s
348.15 K, 302300 kPa	28.48 mPa·s
348.15 K, 315200 kPa	31.58 mPa·s

Conditions	mass density [kg/m3]
273.15 K	981.12
278.15 K	977.18
283.15 K	973.25
288.15 K	969.32
293.15 K	965.4
298.15 K	961.49
303.15 K	957.57
313.15 K	949.73
323.15 K	941.92
333.15 K	934.11
343.15 K	926.28
353.15 K	918.45
363.15 K	910.61
